Calls of active or inactive are those of the source.
What was measured:
[1] = target: T1, Carboxy-terminal domain RNA polymerase II polypeptide A small phosphatase 1 (Homo sapiens, UniProt Q9GZU7); experiment: inhibitors of CTDSP1, concentration-response testing, biochemical assay, absorbance-based, actives from ultra-high-throughput screening (AID 540297); assay type: functional
T1 sequence (Q9GZU7 whole entry): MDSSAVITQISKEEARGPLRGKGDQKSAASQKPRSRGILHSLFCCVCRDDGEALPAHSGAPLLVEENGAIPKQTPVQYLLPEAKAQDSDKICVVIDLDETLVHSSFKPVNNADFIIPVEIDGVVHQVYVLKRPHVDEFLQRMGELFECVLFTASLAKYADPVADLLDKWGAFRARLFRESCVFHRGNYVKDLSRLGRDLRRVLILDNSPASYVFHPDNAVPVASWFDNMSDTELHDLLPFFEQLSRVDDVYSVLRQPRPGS

[2] = target: 26S proteasome non-ATPase regulatory subunit 14 (Homo sapiens, UniProt O00487); experiment: inhibition of proteasome subunit RPN11 – biochemical, fluorescence polarization, uHTS hits, confirmation (AID 602368); assay type: functional
26S proteasome non-ATPase regulatory subunit 14, sequence (O00487 whole entry): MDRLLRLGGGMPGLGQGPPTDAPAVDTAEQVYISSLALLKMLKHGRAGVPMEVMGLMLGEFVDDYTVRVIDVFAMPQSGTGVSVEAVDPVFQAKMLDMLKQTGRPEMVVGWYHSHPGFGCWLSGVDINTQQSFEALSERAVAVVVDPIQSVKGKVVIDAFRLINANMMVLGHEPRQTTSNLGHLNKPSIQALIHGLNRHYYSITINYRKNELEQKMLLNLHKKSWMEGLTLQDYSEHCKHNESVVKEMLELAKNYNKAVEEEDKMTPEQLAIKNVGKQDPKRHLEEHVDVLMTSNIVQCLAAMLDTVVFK

[3] = target: 72 kDa type IV collagenase (Homo sapiens, UniProt P08253); experiment: Dose Response validation of uHTS RPN11 inhibitor hits using a MMP-2 Fluorescence assay.; assay type: functional
72 kDa type IV collagenase, sequence (P08253 whole entry): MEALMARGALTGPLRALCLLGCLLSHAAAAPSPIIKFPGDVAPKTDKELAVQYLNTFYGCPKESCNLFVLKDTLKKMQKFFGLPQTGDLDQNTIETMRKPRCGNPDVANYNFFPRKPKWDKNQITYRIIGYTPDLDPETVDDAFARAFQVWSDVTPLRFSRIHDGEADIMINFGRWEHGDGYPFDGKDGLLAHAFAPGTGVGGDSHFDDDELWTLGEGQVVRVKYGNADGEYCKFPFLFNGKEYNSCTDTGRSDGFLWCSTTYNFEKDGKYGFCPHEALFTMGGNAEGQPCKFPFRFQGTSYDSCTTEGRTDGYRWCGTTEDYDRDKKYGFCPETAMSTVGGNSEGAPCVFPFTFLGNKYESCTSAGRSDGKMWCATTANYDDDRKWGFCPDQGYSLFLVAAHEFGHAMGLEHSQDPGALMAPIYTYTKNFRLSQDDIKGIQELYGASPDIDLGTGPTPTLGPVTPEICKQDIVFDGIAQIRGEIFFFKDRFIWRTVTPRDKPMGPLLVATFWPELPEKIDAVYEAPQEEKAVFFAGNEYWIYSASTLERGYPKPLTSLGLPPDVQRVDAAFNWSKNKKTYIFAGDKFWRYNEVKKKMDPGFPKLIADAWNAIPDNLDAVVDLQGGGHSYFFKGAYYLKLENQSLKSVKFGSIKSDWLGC

Prothrombin = Prothrombin (Bos taurus, UniProt P00735); experiment: thrombin inhibition, dose response, biochemical, fluorescence polarization, uHTS hits (AID 602369); assay type: functional
[4] = tested on: Streptococcus sp. 'group A'; experiment: growth inhibition of control SK(-) GAS strain, dose response, counter-screen for streptokinase expression inhibitor project, luminescence, kanamycin, BacTiterGlo, confirmation (AID 1900); assay type: functional, organism-based
Streptococcus = experiment: Group A Streptococcus viability loss, dose response, counter-screen for streptokinase expression inhibitor project, luminescence, BacTiterGlo (AID 1915); assay type: functional, organism-based;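 further: potency for reduction of bacterial viability or growth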
[5] = target: T2, High affinity choline transporter 1 (Homo sapiens, UniProt Q9GZV3); experiment: CHT inhibitors, dose response, cell-based, 5-point CRC, membrane potential dye (AID 504840); assay type: functional
T2 sequence (Q9GZV3 whole entry): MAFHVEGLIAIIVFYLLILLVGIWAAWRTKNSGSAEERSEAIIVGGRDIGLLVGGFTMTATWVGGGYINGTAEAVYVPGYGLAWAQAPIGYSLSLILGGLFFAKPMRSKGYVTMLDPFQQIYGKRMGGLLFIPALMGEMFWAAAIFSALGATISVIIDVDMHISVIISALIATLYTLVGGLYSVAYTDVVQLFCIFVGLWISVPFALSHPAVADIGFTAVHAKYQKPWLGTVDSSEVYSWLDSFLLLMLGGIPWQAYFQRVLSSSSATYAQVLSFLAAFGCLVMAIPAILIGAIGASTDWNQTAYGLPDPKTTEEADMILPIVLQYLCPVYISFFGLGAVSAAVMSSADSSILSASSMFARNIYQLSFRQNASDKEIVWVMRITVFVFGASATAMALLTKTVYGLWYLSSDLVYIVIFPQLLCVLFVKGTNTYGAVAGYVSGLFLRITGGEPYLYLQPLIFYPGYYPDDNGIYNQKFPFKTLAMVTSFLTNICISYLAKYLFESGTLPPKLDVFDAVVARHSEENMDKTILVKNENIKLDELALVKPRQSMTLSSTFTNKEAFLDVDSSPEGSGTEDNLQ

[6] = cytotoxicity in HEK-293T cells, dose response, cytotoxicity control for TCR NF-kB inhibitor project, luminescence, T-cell screen hits (AID 489026); assay type: functional, cell-based;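 further: cells exposed to compound about 14 hours before the viability readout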
[7] = target: T3, Microphthalmia-associated transcription factor (Homo sapiens, UniProt O75030); experiment: TRPM1 promoter luciferase signal decrease, dose response, MITF inhibitor project, cell-based, SK-MEL-5, cherry-picked, set 3 (AID 493073); assay type: functional
T3 sequence (O75030 whole entry): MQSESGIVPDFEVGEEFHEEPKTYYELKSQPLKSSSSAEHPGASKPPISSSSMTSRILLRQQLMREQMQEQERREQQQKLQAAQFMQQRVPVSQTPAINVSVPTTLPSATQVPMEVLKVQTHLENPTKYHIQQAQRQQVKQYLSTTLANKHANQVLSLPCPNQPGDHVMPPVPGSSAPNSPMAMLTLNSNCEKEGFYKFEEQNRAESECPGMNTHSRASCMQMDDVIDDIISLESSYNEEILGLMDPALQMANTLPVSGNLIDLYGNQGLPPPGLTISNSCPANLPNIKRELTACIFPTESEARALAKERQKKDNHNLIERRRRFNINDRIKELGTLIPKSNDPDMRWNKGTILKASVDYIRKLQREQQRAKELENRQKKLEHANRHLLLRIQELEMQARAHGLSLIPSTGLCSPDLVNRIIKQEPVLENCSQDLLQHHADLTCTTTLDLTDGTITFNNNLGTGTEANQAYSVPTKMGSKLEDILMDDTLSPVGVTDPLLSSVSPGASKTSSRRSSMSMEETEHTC

A-375 = experiment: MITF: Counter assay: A375 proliferation Measured in Cell-Based System Using Plate Reader - 2084-03_Inhibitor_Dose_DryPowder_Activity. [Related pubchem assays (depositor defined):AID488944]; assay type: functional; details: Homo sapiens
INS1 = experiment: beta cell apoptosis inhibitors, cytokine rescue, dose response, luminescence, retest (AID 449756); assay type: functional, cell-based; details: Rattus norvegicus;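 further: cell death triggered by IL-1 beta plus TNF-alpha plus IFN-gamma mixture; protective hits raise ATP signal compared with cytokine alone wells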

With `COc1cc(OC)c2ccc(=O)oc2c1C(CC(=O)N1CCCC(C)C1)c1ccc2c(c1)OCO2` (centres undefined) the IC50 [1] was 14.3 µM (active).

In the case of `O=C(CSc1nc2c(sc3ccccc32)c(=O)n1CCO)NCc1ccco1`, the IC50 [1] is reported as 8.39 µM (active).

With `O=C(N/N=C/c1ccccc1F)c1cc2c(ccc3ccccc32)o1` the IC50 [1] was 4.45 µM (active), the IC50 [2] was 18.2 µM (active) and the IC50 [3] was > 100 µM (inactive). For the same compound, the IC50 (Prothrombin) was 77.5 µM (active).

In the case of `Oc1c(Br)cc(Br)cc1/C=N/c1nc2c(s1)CCCC2`, the EC50 [4] is reported as 7.39 µM (active), the EC50 (Streptococcus) is reported as 7.68 µM (active) and the IC50 [5] is reported as 13.2 µM (active).

For `O=C(O/N=C(/c1ccccc1)c1ccncc1)c1ccccc1[N+](=O)[O-]`, the IC50 [5] was 13.2 µM (active).

With `COc1ccc(C(=O)/C(C#N)=N/Nc2ccc([N+](=O)[O-])cc2)cc1` the IC50 [6] was > 80 µM (inactive), the AC50 [7] was 8.26 µM (active) and the AC50 (A-375) was 28.8 µM (active). For the same compound, the AC50 (INS1) was 1.9 µM (active).

From ChEMBL document CHEMBL1201862, “PubChem BioAssay data set” (2004)
